Measured values: the supplement of paper PMC10307832

What was measured:
Assay in all cases: relative viability (nuclei count vs DMSO), 5 days (fraction); higher = more cells survive
[1] = compound: Cc1nc(NC(=O)N2CCC[C@H]2C(N)=O)sc1-c1ccnc(C(C)(C)C(F)(F)F)c1 [Alpelisib] + N=C(N)NC(=N)NCCc1ccccc1 [Phenformin] (partner 250 µM)
How it was run: (§1)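 Lung cancer cell lines in 1536-well plates were dosed by pin tool the day after seeding, either with one drug alone or with a fixed anchor-drug dose plus five library-drug doses (not always all listed) in √10 steps. After 5 days, cells were fixed and their nuclei stained in one step (final 0.05% Triton X-100, 1% formaldehyde, 1 ug/ml Hoechst), then counted on 4× images. Relative viability is the nuclei count in treated wells divided by that in vehicle wells. Values are medians of duplicate plates.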

[2] = compound: Cc1nc(NC(=O)N2CCC[C@H]2C(N)=O)sc1-c1ccnc(C(C)(C)C(F)(F)F)c1 [Alpelisib] + CC(C)C[C@H](NC(=O)[C@H](Cc1ccccc1)NC(=O)c1cnccn1)B(O)O [Bortezomib] (partner 0.002 µM)
How it was run: as §1

[3] = compound: CCCS(=O)(=O)Nc1ccc(F)c(C(=O)c2c[nH]c3ncc(-c4ccc(Cl)cc4)cc23)c1F [Vemurafenib] + C[C@@H](Oc1cc(-c2cnn(C3CCNCC3)c2)cnc1N)c1c(Cl)ccc(F)c1Cl [Crizotinib] (partner 1 µM)
How it was run: as §1

[4] = compound: CCCS(=O)(=O)Nc1ccc(F)c(C(=O)c2c[nH]c3ncc(-c4ccc(Cl)cc4)cc23)c1F [Vemurafenib] + O=C(c1cc(Cc2n[nH]c(=O)c3ccccc23)ccc1F)N1CCN(C(=O)C2CC2)CC1 [Olaparib] (partner 8 µM)
How it was run: as §1

| Cell Line | relative viability ([1]; first compound 0.04 µM) | relative viability ([1]; first compound 0.1265 µM) | relative viability ([1]; first compound 0.4 µM) | relative viability ([1]; first compound 1.265 µM) | relative viability ([1]; first compound 4 µM) | relative viability ([2]; first compound 0.04 µM) | relative viability ([2]; first compound 0.1265 µM) | relative viability ([2]; first compound 0.4 µM) | relative viability ([2]; first compound 1.265 µM) | relative viability ([2]; first compound 4 µM) | relative viability ([3]; first compound 0.03162 µM) | relative viability ([3]; first compound 0.1 µM) | relative viability ([3]; first compound 0.3162 µM) | relative viability ([3]; first compound 1 µM) | relative viability ([4]; first compound 0.03162 µM) | relative viability ([4]; first compound 0.1 µM) | relative viability ([4]; first compound 1 µM) | relative viability ([4]; first compound 0.3162 µM) |
| --- | --- | --- | --- | --- | --- | --- | --- | --- | --- | --- | --- | --- | --- | --- | --- | --- | --- | --- |
| NCI-H1792 | 0.593 | 0.262 | 0.291 | 0.0902 | 0.0842 | 0.927 | 0.888 | 1.05 | 0.851 | 0.315 | 0.905 | 0.913 | 0.806 | 1 | 0.404 | 0.45 | 0.441 | – |
| NCI-H1915 | 0.361 | 0.378 | 0.389 | 0.346 | 0.347 | 0.991 | 1.04 | 0.947 | 0.887 | 0.805 | 0.874 | 0.908 | 0.853 | 0.769 | 0.263 | 0.25 | 0.244 | 0.242 |
| NCI-H1975 | 0.417 | 0.41 | 0.387 | 0.298 | 0.208 | 0.419 | 0.318 | 0.355 | 0.238 | 0.189 | 0.955 | 0.926 | 0.837 | 1.02 | 0.728 | 0.755 | 0.793 | 0.727 |
| NCI-H1993 | 0.501 | 0.534 | 0.443 | 0.539 | 0.507 | 1.09 | 1.03 | 1.02 | 0.791 | 0.489 | 0.906 | – | 0.935 | 0.818 | 0.976 | – | 1.12 | 1.26 |
| NCI-H2009 | 0.502 | 0.458 | 0.555 | 0.456 | 0.468 | 1.03 | 0.982 | 1.24 | 0.89 | 0.859 | 1.02 | 0.924 | 0.754 | 0.962 | 0.61 | 0.661 | 0.652 | 0.612 |
| NCI-H2023 | 0.404 | 0.408 | 0.371 | 0.287 | 0.282 | 0.926 | 0.952 | 0.942 | 0.57 | 0.601 | 0.534 | 0.452 | 0.704 | 0.675 | 0.463 | 0.42 | 0.479 | 0.483 |
| NCI-H2085 | 0.73 | 0.631 | 0.782 | 0.698 | 0.621 | 0.982 | 1.08 | 0.816 | 0.927 | 0.842 | 0.875 | 0.841 | 0.822 | 0.783 | 0.737 | 0.791 | 0.858 | 0.632 |
| NCI-H2087 | 0.491 | 0.483 | 0.501 | 0.36 | 0.284 | 0.651 | 0.78 | 0.893 | 0.685 | 0.47 | 0.844 | 1 | – | 0.79 | 0.506 | 0.588 | 0.47 | 0.504 |
| NCI-H2126 | 0.541 | 0.498 | 0.501 | 0.381 | 0.343 | 1.06 | 1.06 | 1.03 | 0.974 | 0.81 | 1.02 | 1.04 | 1.02 | 1.04 | 0.835 | 0.956 | 0.922 | 0.92 |
| NCI-H2228 | 0.363 | 0.284 | 0.306 | 0.171 | 0.175 | 0.933 | 0.807 | 0.922 | 0.696 | 0.537 | 0.428 | 0.417 | 0.688 | 0.469 | 0.639 | 0.87 | 0.6 | 0.611 |
| NCI-H2347 | 0.445 | 0.299 | 0.416 | 0.38 | 0.376 | 0.784 | 0.849 | 1.12 | 1.08 | 0.876 | 0.655 | 0.657 | 0.397 | 0.69 | 0.495 | 0.493 | 0.588 | 0.547 |
| NCI-H2405 | 0.371 | 0.345 | 0.368 | 0.304 | 0.272 | 0.997 | 0.835 | 0.927 | 0.83 | 0.696 | 0.865 | 0.827 | – | 0.766 | 0.857 | 0.893 | 0.937 | – |
| NCI-H3122 | 0.409 | 0.403 | 0.41 | 0.399 | 0.316 | 0.992 | 1.08 | 0.984 | 1.12 | 0.999 | 0.266 | 0.263 | 0.383 | 0.211 | 0.63 | 0.647 | 0.597 | 0.606 |
| PC-3 [JPC-3] | 0.502 | 0.496 | 0.503 | 0.454 | 0.463 | 0.873 | 0.901 | 0.766 | 0.768 | 0.66 | 0.91 | – | 1.01 | 1.01 | – | – | 1.25 | 1.05 |
| PC-14 | 0.653 | 0.406 | 0.67 | 0.54 | 0.526 | 0.801 | 0.882 | 1.16 | 0.773 | 0.747 | 0.749 | – | 0.849 | 0.852 | 0.292 | – | 0.292 | 0.304 |
| RERF-LC-KJ | 0.427 | 0.394 | 0.433 | 0.345 | 0.33 | 1.1 | 1.08 | 1.32 | 1.01 | 0.934 | 0.838 | 0.834 | 0.832 | 0.922 | 0.842 | 0.944 | 1.06 | 0.923 |
| SK-LU-1 | 0.495 | 0.498 | 0.434 | 0.408 | 0.358 | 1.36 | 0.723 | 1.01 | 0.805 | 0.934 | 0.855 | 0.905 | 0.664 | 0.72 | 0.368 | 0.418 | 0.392 | 0.393 |
| SW 1573 | 0.306 | 0.335 | 0.272 | 0.217 | 0.257 | 0.898 | 0.947 | 1 | 0.72 | 0.651 | 0.628 | 0.941 | 1.01 | 0.722 | 0.435 | 0.414 | 0.531 | 0.577 |
